Measured values: ChEMBL document CHEMBL4808251, “Preparation, biological & cheminformatics-based assessment of N2,N4-diphenylpyrimidine-2,4-diamine as potential Kinase-targeted antimalarials” (Bioorg Med Chem, 2021)
≈ marks a conversion by molar mass, not a printed value.

What was measured:
Plasmodium falciparum = assay: Antimalarial activity against chloroquine-sensitive plasmodium falciparum 3D7 infected in human erythrocytes assessed as parasite growth inhibition measured after 72 hrs by SYBR green dye based fluorescence analysis; assay type: functional, organism-based; conditions: 3D7, Erythrocyte
[1] = Cytotoxicity against human HepG2 cells assessed as inhibition of cell viability relative to control; assay type: cell-based; conditions: read-out: INH
HepG2 = assay: Cytotoxicity against human HepG2 cells assessed as inhibition of cell growth measured after 72 hrs by resazurin dye based fluorescence assay; conditions: HepG2, 72 h
[2] = Selectivity index, ratio of IC50 for cytotoxicity against human HepG2 cells to IC50 for antimalarial activity against chloroquine-sensitive plasmodium falciparum 3D7 infected in human erythrocytes; assay type: toxicity, cell-based; conditions: read-out: Ratio IC50
[3] = molecular target: JNK1 (Mitogen-activated protein kinase 8) (Homo sapiens, UniProt P45983); assay: Inhibition of human JNK1 at 1 uM measured after 30 mins by [gamma-33P]-ATP assay
[4] = molecular target: ERK1 (Mitogen-activated protein kinase 3) (Homo sapiens, UniProt P27361); assay: Inhibition of human ERK1 at 1 uM measured after 30 mins by [gamma-33P]-ATP assay
[5] = molecular target: MEKK1 (Mitogen-activated protein kinase kinase kinase 1) (Homo sapiens, UniProt Q13233); assay: Inhibition of human MEKK1 at 1 uM measured after 30 mins by [gamma-33P]-ATP assay
[6] = molecular target: HER4 (Receptor tyrosine-protein kinase erbB-4) (Homo sapiens, UniProt Q15303); assay: Inhibition of human HER4 at 1 uM measured after 30 mins by [gamma-33P]-ATP assay
[7] = 1-octanol/water partition coefficient, logD of the compound at pH 7.4 measured after 6 hrs by shake flask technique based HPLC-UV analysis; assay type: physicochemical
[8] = Aqueous solubility of compound in PBS at pH 7.4 by HPLC-UV analysis; assay type: physicochemical
[9] = Effective permeability of the compound in PBS at pH 7.4 at 10 uM incubated for 5 hrs by PAMPA based UPLC-MS/MS analysis; assay type: ADME; conditions: read-out: permeability
[10] = Intrinsic clearance in human liver microsomes at 0.5 uM in the presence of NADPH measured upto 30 mins by UPLC-MS/MS analysis; assay type: ADME, Microsome; conditions: 0.5 h
Aurora kinase A = molecular target: T1, Aurora kinase A (Homo sapiens, UniProt O14965); assay: Inhibition of human Aurora A at 1 uM measured after 30 mins by [gamma-33P]-ATP assay
T1 sequence (O14965 whole entry): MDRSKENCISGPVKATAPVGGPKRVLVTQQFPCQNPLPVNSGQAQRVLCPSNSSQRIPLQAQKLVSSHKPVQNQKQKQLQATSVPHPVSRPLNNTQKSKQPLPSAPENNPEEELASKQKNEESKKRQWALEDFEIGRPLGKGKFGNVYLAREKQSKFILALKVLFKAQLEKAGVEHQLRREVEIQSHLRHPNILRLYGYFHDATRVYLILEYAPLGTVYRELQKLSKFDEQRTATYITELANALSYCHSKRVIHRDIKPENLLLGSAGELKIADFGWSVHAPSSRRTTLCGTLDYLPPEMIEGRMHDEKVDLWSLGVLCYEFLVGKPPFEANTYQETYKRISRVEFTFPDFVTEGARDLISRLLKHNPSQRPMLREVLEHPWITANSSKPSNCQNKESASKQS

[11] = molecular target: VEGFR1 (Vascular endothelial growth factor receptor 1) (Homo sapiens, UniProt P17948); assay: Inhibition of human VEGFR1 at 1 uM measured after 30 mins by [gamma-33P]-ATP assay; conditions: human VEGFR1 kinase
[12] = molecular target: T2, JAK3 (Tyrosine-protein kinase JAK3) (Homo sapiens, UniProt P52333); assay: Inhibition of human JAK3 at 1 uM measured after 30 mins by [gamma-33P]-ATP assay
T2 sequence (P52333 whole entry): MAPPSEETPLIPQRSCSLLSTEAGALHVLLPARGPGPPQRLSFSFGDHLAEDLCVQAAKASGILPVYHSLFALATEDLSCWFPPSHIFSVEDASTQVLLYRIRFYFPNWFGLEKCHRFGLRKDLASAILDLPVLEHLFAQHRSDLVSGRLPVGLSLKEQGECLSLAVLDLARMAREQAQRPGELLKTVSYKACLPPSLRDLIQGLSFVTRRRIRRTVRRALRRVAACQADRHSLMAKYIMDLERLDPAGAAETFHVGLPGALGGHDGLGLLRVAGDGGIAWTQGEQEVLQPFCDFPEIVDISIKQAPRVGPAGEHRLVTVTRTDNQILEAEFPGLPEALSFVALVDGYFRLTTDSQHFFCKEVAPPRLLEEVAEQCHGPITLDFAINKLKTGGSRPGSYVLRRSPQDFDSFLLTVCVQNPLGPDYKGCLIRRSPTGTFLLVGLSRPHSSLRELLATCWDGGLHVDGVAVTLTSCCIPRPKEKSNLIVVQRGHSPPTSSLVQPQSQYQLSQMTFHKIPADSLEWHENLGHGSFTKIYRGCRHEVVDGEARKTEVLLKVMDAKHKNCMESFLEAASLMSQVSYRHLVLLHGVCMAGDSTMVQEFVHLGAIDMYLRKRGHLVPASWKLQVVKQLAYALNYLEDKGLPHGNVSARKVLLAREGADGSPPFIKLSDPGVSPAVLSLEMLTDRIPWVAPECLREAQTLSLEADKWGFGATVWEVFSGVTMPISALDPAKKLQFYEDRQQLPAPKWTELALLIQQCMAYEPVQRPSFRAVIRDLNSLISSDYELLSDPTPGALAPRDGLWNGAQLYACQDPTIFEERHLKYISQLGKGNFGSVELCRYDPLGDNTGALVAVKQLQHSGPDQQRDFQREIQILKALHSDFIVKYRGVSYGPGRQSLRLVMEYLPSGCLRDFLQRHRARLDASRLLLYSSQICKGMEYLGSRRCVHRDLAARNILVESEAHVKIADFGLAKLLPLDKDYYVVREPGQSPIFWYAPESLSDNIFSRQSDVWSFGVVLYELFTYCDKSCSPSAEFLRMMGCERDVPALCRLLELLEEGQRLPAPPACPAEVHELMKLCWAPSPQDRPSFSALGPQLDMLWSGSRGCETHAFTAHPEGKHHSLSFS

[13] = molecular target: CDK2 (Cyclin-dependent kinase 2) (Homo sapiens, UniProt P24941); assay: Inhibition of human CDK2 at 1 uM measured after 30 mins by [gamma-33P]-ATP assay
[14] = molecular target: PIM1 (Serine/threonine-protein kinase pim-1) (Homo sapiens, UniProt P11309); assay: Inhibition of human PIM1 at 1 uM measured after 30 mins by [gamma-33P]-ATP assay
Sequence of PIM1 (Serine/threonine-protein kinase pim-1) (P11309 whole entry): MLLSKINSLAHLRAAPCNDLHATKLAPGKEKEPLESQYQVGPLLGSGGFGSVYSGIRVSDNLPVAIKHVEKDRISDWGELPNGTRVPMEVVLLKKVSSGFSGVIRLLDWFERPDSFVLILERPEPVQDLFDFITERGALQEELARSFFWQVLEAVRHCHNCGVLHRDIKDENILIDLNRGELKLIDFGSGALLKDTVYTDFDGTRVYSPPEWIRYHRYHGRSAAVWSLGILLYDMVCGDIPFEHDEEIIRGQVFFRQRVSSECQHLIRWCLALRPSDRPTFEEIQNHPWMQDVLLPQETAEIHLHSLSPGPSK

Sequence of JNK1 (Mitogen-activated protein kinase 8) (P45983 whole entry): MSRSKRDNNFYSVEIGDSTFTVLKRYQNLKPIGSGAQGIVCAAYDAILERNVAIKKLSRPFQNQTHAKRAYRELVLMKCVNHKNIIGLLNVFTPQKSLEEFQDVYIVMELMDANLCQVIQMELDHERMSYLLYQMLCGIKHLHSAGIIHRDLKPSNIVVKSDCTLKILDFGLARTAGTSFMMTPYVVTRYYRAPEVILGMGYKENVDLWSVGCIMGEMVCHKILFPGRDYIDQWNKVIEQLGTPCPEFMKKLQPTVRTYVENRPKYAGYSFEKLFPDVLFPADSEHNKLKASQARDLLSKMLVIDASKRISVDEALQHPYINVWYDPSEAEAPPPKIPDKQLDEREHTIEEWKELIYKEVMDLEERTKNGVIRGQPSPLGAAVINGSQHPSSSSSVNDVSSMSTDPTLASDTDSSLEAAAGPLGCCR
Sequence of ERK1 (Mitogen-activated protein kinase 3) (P27361 whole entry): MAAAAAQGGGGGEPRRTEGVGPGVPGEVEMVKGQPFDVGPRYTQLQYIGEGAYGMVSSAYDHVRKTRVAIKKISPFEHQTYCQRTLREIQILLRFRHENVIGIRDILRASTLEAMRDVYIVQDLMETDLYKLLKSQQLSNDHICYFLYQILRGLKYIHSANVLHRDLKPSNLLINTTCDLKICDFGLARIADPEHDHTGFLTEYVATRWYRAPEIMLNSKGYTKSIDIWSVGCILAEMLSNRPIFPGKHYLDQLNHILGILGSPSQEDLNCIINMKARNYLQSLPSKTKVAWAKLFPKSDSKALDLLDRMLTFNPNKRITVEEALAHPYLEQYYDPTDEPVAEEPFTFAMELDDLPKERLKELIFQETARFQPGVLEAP
Sequence of MEKK1 (Mitogen-activated protein kinase kinase kinase 1) (Q13233 whole entry): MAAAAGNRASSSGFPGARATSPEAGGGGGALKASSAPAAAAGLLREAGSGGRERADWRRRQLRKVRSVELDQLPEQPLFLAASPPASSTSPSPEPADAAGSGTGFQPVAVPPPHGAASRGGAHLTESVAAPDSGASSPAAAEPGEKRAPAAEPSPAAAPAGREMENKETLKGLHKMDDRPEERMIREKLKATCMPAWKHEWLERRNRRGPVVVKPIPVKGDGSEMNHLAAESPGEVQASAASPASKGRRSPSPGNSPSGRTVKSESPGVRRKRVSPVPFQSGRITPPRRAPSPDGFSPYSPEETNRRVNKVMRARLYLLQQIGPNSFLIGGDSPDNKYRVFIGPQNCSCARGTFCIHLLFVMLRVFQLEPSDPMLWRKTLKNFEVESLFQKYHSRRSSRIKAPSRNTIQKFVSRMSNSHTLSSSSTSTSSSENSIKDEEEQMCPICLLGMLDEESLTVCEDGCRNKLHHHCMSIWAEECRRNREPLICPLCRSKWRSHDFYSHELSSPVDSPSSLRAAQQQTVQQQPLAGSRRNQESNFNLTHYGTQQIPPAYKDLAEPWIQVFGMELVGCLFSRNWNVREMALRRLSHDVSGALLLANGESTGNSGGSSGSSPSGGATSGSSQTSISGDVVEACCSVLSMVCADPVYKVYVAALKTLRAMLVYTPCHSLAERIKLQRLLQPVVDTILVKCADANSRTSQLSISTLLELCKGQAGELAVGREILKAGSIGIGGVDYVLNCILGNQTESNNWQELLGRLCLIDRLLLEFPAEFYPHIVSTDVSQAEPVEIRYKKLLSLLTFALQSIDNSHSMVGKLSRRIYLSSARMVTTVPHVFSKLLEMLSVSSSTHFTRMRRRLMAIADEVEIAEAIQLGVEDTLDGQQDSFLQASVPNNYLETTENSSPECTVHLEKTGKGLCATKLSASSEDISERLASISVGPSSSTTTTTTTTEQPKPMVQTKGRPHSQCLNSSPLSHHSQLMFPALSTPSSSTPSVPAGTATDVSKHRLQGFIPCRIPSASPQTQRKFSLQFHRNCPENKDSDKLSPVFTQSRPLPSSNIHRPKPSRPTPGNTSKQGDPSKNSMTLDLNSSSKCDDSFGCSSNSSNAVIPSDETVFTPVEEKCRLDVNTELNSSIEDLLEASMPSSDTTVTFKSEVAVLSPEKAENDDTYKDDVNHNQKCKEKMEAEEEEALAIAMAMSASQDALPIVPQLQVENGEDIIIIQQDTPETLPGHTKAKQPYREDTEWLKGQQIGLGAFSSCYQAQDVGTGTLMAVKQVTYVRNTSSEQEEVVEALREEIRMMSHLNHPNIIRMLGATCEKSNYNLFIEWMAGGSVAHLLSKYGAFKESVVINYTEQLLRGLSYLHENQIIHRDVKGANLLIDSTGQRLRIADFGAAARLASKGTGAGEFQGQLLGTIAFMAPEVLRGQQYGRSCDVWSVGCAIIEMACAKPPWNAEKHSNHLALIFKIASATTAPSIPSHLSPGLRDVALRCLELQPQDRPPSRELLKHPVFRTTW
Sequence of HER4 (Receptor tyrosine-protein kinase erbB-4) (Q15303 whole entry): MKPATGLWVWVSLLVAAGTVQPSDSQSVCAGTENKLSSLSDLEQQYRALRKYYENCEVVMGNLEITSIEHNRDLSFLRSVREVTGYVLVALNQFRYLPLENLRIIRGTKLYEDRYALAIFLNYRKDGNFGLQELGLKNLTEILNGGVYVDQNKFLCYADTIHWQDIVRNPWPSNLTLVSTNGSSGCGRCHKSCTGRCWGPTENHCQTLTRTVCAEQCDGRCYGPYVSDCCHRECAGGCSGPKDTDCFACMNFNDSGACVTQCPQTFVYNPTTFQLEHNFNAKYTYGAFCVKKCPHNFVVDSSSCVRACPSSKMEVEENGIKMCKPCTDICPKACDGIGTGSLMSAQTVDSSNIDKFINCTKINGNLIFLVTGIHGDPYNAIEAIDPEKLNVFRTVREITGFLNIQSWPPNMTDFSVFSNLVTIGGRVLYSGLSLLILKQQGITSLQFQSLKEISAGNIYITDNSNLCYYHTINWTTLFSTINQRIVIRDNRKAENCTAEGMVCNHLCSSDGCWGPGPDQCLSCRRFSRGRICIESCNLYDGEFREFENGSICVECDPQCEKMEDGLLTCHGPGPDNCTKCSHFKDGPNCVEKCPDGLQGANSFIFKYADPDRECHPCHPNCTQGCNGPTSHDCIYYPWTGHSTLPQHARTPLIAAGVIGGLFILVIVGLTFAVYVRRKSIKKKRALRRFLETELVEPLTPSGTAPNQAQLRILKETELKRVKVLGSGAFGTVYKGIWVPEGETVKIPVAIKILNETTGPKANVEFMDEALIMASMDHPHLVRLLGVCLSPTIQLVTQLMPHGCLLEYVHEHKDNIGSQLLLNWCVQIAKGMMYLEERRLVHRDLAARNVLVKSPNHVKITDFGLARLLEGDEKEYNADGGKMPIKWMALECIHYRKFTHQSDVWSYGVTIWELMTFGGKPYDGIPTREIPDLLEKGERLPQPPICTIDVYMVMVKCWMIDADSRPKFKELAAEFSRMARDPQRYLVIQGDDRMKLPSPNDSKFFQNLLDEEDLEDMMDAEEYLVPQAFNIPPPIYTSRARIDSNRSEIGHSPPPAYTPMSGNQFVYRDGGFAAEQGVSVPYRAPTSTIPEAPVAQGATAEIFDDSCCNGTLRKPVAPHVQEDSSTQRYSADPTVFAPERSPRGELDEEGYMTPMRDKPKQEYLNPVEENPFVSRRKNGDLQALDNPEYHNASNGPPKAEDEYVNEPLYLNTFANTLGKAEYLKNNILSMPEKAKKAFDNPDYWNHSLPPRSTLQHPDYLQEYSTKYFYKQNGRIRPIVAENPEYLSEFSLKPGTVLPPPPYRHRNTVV

SMILES | IC50 (Plasmodium falciparum) [µM] | IC50 (HepG2) [µM] | selectivity ratio [2] | other results
CC(=O)c1ccc(NC(=O)Nc2ccc(N(C)c3ccnc(Nc4cccc(CS(C)(=O)=O)c4)n3)cc2)cc1 | 0.12 |  |  | cytotoxicity [1]: 86%
Cc1c2ccc(Nc3ccnc(Nc4ccc(S(N)(=O)=O)cc4)n3)cc2nn1C | 13 | > 25 | > 1.9 | 
Cc1cnc(Nc2ccc(S(N)(=O)=O)cc2)nc1Nc1ccc2nc[nH]c2c1 | 3.2 | 18 | 5.6 | 
c1cc(Nc2nccc(Nc3ccc4cn[nH]c4c3)n2)cc(N2CCOCC2)c1 | 4.2 | 16 | 3.8 | 
NS(=O)(=O)c1cccc(Nc2nccc(Nc3ccc4nc[nH]c4c3)n2)c1 | 4.2 | > 25 | > 6 | 
Cc1ccc(Nc2nccc(Nc3ccc4cn[nH]c4c3)n2)cc1 | 2.5 | 18 | 7.2 | 
Cc1c2ccc(Nc3ccnc(Nc4cccc(S(N)(=O)=O)c4)n3)cc2nn1C | 10 | 19 | 1.9 | 
Cc1cc(Nc2nccc(Nc3ccc4nc[nH]c4c3)n2)ccc1N1CCN(C)CC1 | 0.42 | 15 | 36 | inhibition at 0.5 h, 1 µM [3]: 63.5%; inhibition at 0.5 h, 1 µM [4]: 71%; inhibition at 0.5 h, 1 µM [5]: 44.4%; inhibition at 0.5 h, 1 µM [6]: 35.4%; logD at 6 h [7]: 2.9; solubility [8]: 16 µM (≈ 6.63 µg/mL); Papp at 5 h, 10 µM [9]: 0.2 nm/s; CLH [10]: 1.8 mL/min/g; inhibition at 0.5 h, 1 µM (Aurora kinase A): 15.7%; inhibition at 0.5 h, 1 µM [11]: 2.9%; inhibition at 0.5 h, 1 µM [12]: 57.8%; inhibition at 0.5 h, 1 µM [13]: 57.3%; inhibition at 0.5 h, 1 µM [14]: 108%
CN1CCN(c2cccc(Nc3nccc(Nc4ccc5nc[nH]c5c4)n3)c2)CC1 | 0.87 | 11 | 13 | 
CN1CCN(c2cccc(Nc3nccc(Nc4ccc5cn[nH]c5c4)n3)c2)CC1 | 1.1 | 6.7 | 6.1 | 
c1cc(Nc2nccc(Nc3ccc4nc[nH]c4c3)n2)cc(N2CCOCC2)c1 | 2.4 | 9.6 | 4 | 
Cc1cccc(Nc2ncc(C)c(Nc3ccc4nc[nH]c4c3)n2)c1 | 0.77 | 6.6 | 8.6 | 
c1cc(Nc2ccc3nc[nH]c3c2)nc(Nc2ccc(N3CCOCC3)cc2)n1 | 3.2 | > 25 | > 7.8 | 
Cc1cccc(Nc2ncc([N+](=O)[O-])c(Nc3ccc4nc[nH]c4c3)n2)c1 | 0.78 | 22 | 28 | inhibition at 0.5 h, 1 µM [3]: 91%; inhibition at 0.5 h, 1 µM [4]: 69.8%; inhibition at 0.5 h, 1 µM [5]: 43.2%; inhibition at 0.5 h, 1 µM [6]: 83.8%; logD at 6 h [7]: 3.2; solubility [8]: 1 µM (≈ 0.361 µg/mL); Papp at 5 h, 10 µM [9]: 38 nm/s; CLH [10]: 19 mL/min/g; inhibition at 0.5 h, 1 µM (Aurora kinase A): 15.6%; inhibition at 0.5 h, 1 µM [11]: 27.9%; inhibition at 0.5 h, 1 µM [12]: 54.9%; inhibition at 0.5 h, 1 µM [13]: 25.3%; inhibition at 0.5 h, 1 µM [14]: 76.7%
CS(=O)(=O)Nc1cccc(Nc2nccc(Nc3ccc4nc[nH]c4c3)n2)c1 | 2.8 | > 25 | > 8.9 | 
c1cc(Nc2ccc3cn[nH]c3c2)nc(Nc2ccc(N3CCOCC3)cc2)n1 | 2.2 | 8 | 3.6 | 
Cc1cccc(Nc2ncc(Cl)c(Nc3ccc4nc[nH]c4c3)n2)c1 | 2 | 7.4 | 3.7 | 

SMILES | IC50 (Plasmodium falciparum) [µM] | IC50 (HepG2) [µM] | selectivity ratio [2] | other results
NC(=O)c1ccc(Nc2nccc(Nc3ccc4cn[nH]c4c3)n2)cc1 | 5.4 | 16 | 3 | 
CN1CCN(c2ccc(Nc3nccc(Nc4ccc5nc[nH]c5c4)n3)cc2)CC1 | 0.66 | > 25 | > 38 | inhibition at 0.5 h, 1 µM [3]: 75.9%; inhibition at 0.5 h, 1 µM [4]: 91.3%; inhibition at 0.5 h, 1 µM [5]: 47.9%; inhibition at 0.5 h, 1 µM [6]: 41.6%; logD at 6 h [7]: 2.3; solubility [8]: 124 µM (≈ 49.7 µg/mL); Papp at 5 h, 10 µM [9]: 0.2 nm/s; CLH [10]: 0.8 mL/min/g; inhibition at 0.5 h, 1 µM (Aurora kinase A): 20.6%; inhibition at 0.5 h, 1 µM [11]: 7.9%; inhibition at 0.5 h, 1 µM [12]: 69.2%; inhibition at 0.5 h, 1 µM [13]: 85%; inhibition at 0.5 h, 1 µM [14]: 89.3%
NS(=O)(=O)c1ccc(Nc2nccc(Nc3ccc4nc[nH]c4c3)n2)cc1 | 8.2 | > 25 | > 3 | 
Cc1cccc(Nc2nccc(Nc3ccc4cn[nH]c4c3)n2)c1 | 3.6 | 15 | 4.2 | 
CN1CCN(c2ccc(Nc3nccc(Nc4ccc5cn[nH]c5c4)n3)cc2)CC1 | 0.6 | 7 | 12 | 
Cc1cccc(Nc2nccc(Nc3ccc4nc[nH]c4c3)n2)c1 | 0.98 | 20 | 20 | 
NS(=O)(=O)c1ccc(Nc2ncc(Cl)c(Nc3ccc4nc[nH]c4c3)n2)cc1 | 2.5 | 7.8 | 3.1 | 
O=C(O)c1ccc(Nc2nccc(Nc3ccc4nc[nH]c4c3)n2)cc1 | 8.2 | > 25 | > 3 | 
Brc1ccc(Nc2nccc(Nc3ccc4cn[nH]c4c3)n2)cc1 | 1.6 | 20 | 13 | 
Brc1cccc(Nc2nccc(Nc3ccc4cn[nH]c4c3)n2)c1 | 2.6 | 17 | 6.5 | 
NS(=O)(=O)c1ccc(Nc2nccc(Nc3ccc4cn[nH]c4c3)n2)cc1 | 19 | 22 | 1.2 | 
Cc1ccc(Nc2nccc(Nc3ccc4nc[nH]c4c3)n2)cc1 | 1.4 | > 25 | > 18 | 
CN1CCN(c2ccc(Nc3ncc(C#N)c(Nc4ccccc4C(N)=O)n3)cc2)CC1 | 0.04 |  |  | cytotoxicity [1]: 43%
O[C@@H](c1cc(C(F)(F)F)nc2c(C(F)(F)F)cccc12)[C@H]1CCCCN1 [(S,R)-MEFLOQUINE] | 0.014 |  |  | 
C[C@H]1[C@@H](O)O[C@@H]2O[C@@]3(C)CC[C@H]4[C@H](C)CC[C@@H]1[C@@]24OO3 [ARTENIMOL] | 0.031 |  |  | 
CCc1nc(N)nc(N)c1-c1ccc(Cl)cc1 [PYRIMETHAMINE] | 0.004 |  |  | 
